Assay results: paper PMC9855884, “Glycosylated Lipopeptides—Synthesis and Evaluation of Antimicrobial Activity and Cytotoxicity” (Biomolecules, 2023)
Converted amounts (≈) assume the structure as drawn. Where a SMILES comes first, the peptide text is derived from it. The star is where a group is joined. βGlcNAc = CC(=O)N[C@@H]1[C@@H](O)[C@H](O)[C@@H](CO)O[C@H]1*; Stearoyl = CCCCCCCCCCCCCCCCCC(=O)*; Palmitoyl = CCCCCCCCCCCCCCCC(=O)*

Tests used:
[1] = Determination of peptide hydrophobicity with RP-HPLC (adjusted retention time); format: physicochemical; settings: RP-HPLC as measure of hydrophobicity; Waters X-Bridge Shield RP-18 3.0 × 100 mm, 3.5 μm; linear 20–80% acetonitrile in water over 30 min, 0.1% TFA; 0.5 mL/min; 25.0 °C; peptide 1 g/L in water (0.1% TFA); UV 214 nm; triplicate
Procedure: To determine peptide hydrophobicity, a Waters Alliance e2695 system with a Waters 2998 PDA Detector was used. All analyses were carried out on a Waters X-Bridge Shield RP-18 column (3.0 × 100 mm, 3.5 μm particle size, 130 Å pore size). The peptides were dissolved in water (0.1% TFA, v/v) up to a concentration of 1 g/L. UV detection at 214 nm was used, and samples (10 μL) were eluted with a linear 20–80% acetonitrile gradient in deionized water over 30 min at 25.0 ± 0.1 °C. The mobile phase flow rate was 0.5 mL/min. Both eluents contained 0.1% (v/v) of TFA. Each peptide sample was analyzed in triplicate. Maximum standard deviation and coefficient of variation were 0.046 and 0.23%, respectively.
After synthesis and purification, all the products were analyzed with MS and HPLC to confirm purity and identity of the compounds. […] The chromatographic analyses were performed with RP-HPLC; retention time refers to hydrophobicity of the lipopeptide.

E. faecium ATCC 700221 = format: cell-based, Enterococcus faecium; settings: ATCC 700221, 18 h
Procedure: (§1) The Acinetobacter baumannii ATCC BAA-1605, Enterococcus faecium ATCC 700221, Klebsiella aerogenes ATCC 13048, Klebsiella pneumoniae ATCC 700603, Pseudomonas aeruginosa ATCC 9027, Staphylococcus aureus ATCC 33591, Candida glabrata ATCC 15126, strains were acquired from the American Type Culture Collection (ATCC). All the strains were stored at −80 °C in Roti-Store cryo vials and were transferred into fresh Mueller–Hinton broth (MHB, Becton Dickinson, Warsaw, Poland) for bacteria or RPMI-1640 (Sigma-Aldrich, Steinheim, Germany) for fungi before the tests and incubated for 24 h at 37 °C. Then, the cultures were seeded on the Mueller–Hinton agar (BioMaxima, Lublin, Poland) or Sabouraud dextrose agar (SDA, BioMaxima, Lublin, Poland) plates, respectively, and incubated as just mentioned. These agar cultures were used for further microbiological assays. Cell densities for all assays were adjusted spectrophotometrically (Multiskan GO Microplate Spectrophotometer, Thermo Fisher Scientific, Vantaa, Finland) at 600 and 530 nm for bacteria and fungi, respectively.
(§2) The MICs were determined using a broth microdilution method according to the Clinical and Laboratory Standard Institute guidelines. For this purpose, initial inoculums of bacteria (5 × 10^5 CFU/mL) in MHB and yeasts (2 × 10^3 CFU/mL) in RPMI-1640 with 2% D-glucose were exposed to the ranging concentration of lipopeptides (1–512 μg/mL) and incubated at 37 °C for 18 h and 24 h, respectively. The experiments were conducted on 96-well microtiter polystyrene plates (Kartell, Italy). The growth was assessed visually after incubation and the MIC was assumed as the lowest peptide concentration at which a noticeable growth of microorganisms was inhibited. All experiments were conducted in triplicate.

S. aureus ATCC 33591 = format: cell-based, Staphylococcus aureus; settings: ATCC 33591, 18 h
Procedure: as §1, §2

P. aeruginosa ATCC 9027 = format: cell-based, Pseudomonas aeruginosa; settings: ATCC 9027, 18 h
Procedure: as §1, §2

C. glabrata ATCC 15126 = format: cell-based, Candida glabrata; settings: ATCC 15126, 24 h
Procedure: as §1, §2

S. aureus biofilm = format: cell-based, Staphylococcus aureus; settings: 24 h
Procedure: as §1
(§3) The MBECs were determined as previously described, using 96-well polystyrene flat-bottom plates. For this purpose, 24 h cultures of microorganisms were diluted to obtain a final density of 5.0 × 10^5 CFU/mL and 2.0 × 10^5 CFU/mL of bacteria and fungi, respectively. Microorganisms were diluted in MHB or RPMI-1640 with 2% D-glucose (bacteria and fungi, respectively). Briefly, 100 µL of cell suspension was added into the test plates. After 24 h of incubation at 37 °C, the wells were rinsed three times with a phosphate buffer saline (PBS, pH 7.4) to remove non-adherent cells. Subsequently, 100 μL of the test compounds over the concentration range (1–512 μg/mL) were added to each well. After 24 h of incubation at 37 °C, 20 μL of a cell viability reagent was added (resazurin, 4 g/L; Sigma Aldrich, St. Louis, MO, USA). The MBEC was read after 1 h. The determined values were recorded as the lowest concentration at which the reduction of resazurin (from blue to pink) […]. All experiments were conducted in triplicate.

K. pneumoniae biofilm = format: cell-based, Klebsiella pneumoniae; settings: 24 h
Procedure: as §1, §3

A. baumannii biofilm = format: cell-based, Acinetobacter baumannii; settings: 24 h
Procedure: as §1, §3

P. aeruginosa biofilm = format: cell-based, Pseudomonas aeruginosa; settings: 24 h
Procedure: as §1, §3

C. glabrata biofilm = format: cell-based, Candida glabrata; settings: 24 h
Procedure: as §1, §3

| Compound | Adjusted Retention Time [1] [min] | MIC (E. faecium ATCC 700221) [µg/mL] | MIC (S. aureus ATCC 33591) [µg/mL] | MIC (P. aeruginosa ATCC 9027) [µg/mL] | MIC (C. glabrata ATCC 15126) [µg/mL] | MBEC (S. aureus biofilm) [µg/mL] | MBEC (K. pneumoniae biofilm) [µg/mL] | MBEC (A. baumannii biofilm) [µg/mL] | MBEC (P. aeruginosa biofilm) [µg/mL] | MBEC (C. glabrata biofilm) [µg/mL] |
| --- | --- | --- | --- | --- | --- | --- | --- | --- | --- | --- |
| CCCCCCCCCCCCCCCCCC(=O)N[C@@H](CO)C(=O)N[C@@H](CCCNC(=N)N)C(=O)N[C@@H](CCCNC(=N)N)C(N)=O [Peptide 7, C18-SRR-NH2] (Stearoyl-Ser-Arg-Arg-NH2) | 24.78 | 8 (≈ 11.7 µM) | 16 (≈ 23.4 µM) | 64 (≈ 93.7 µM) | 4 (≈ 5.86 µM) | 512 | 512 | 512 | 512 | 128 |
| CCCCCCCCCCCCCCCCCC(=O)N[C@@H](CCCNC(=N)N)C(=O)N[C@@H](CO)C(=O)N[C@@H](CCCNC(=N)N)C(N)=O [Peptide 8, C18-RSR-NH2] (Stearoyl-Arg-Ser-Arg-NH2) | 24.13 | 8 (≈ 11.7 µM) | 16 (≈ 23.4 µM) | 64 (≈ 93.7 µM) | 4 (≈ 5.86 µM) | 256 | 512 | 512 | >512 | 128 |
| CCCCCCCCCCCCCCCCCC(=O)N[C@@H](CCCNC(=N)N)C(=O)N[C@@H](CCCNC(=N)N)C(=O)N[C@@H](CO)C(N)=O [Peptide 9, C18-RRS-NH2] (Stearoyl-Arg-Arg-Ser-NH2) | 24.04 | 8 (≈ 11.7 µM) | 8 (≈ 11.7 µM) | 64 (≈ 93.7 µM) | 4 (≈ 5.86 µM) | 256 | 512 | 512 | >512 | 128 |
| CCCCCCCCCCCCCCCC(=O)N[C@@H](CCCNC(=N)N)C(=O)N[C@@H](CO[C@@H]1O[C@H](CO)[C@@H](O)[C@H](O)[C@H]1NC(C)=O)C(=O)N[C@@H](CCCNC(=N)N)C(N)=O [Peptide 14, C16-RS(GlcNAc)R-NH2] (Palmitoyl-Arg-Ser(βGlcNAc)-Arg-NH2) | 18.63 | 16 (≈ 18.6 µM) | 16 (≈ 18.6 µM) | 32 (≈ 37.3 µM) | 16 (≈ 18.6 µM) |  |  |  |  |  |
| CCCCCCCCCCCCCCCC(=O)N[C@@H](CCCNC(=N)N)C(=O)N[C@@H](CCCNC(=N)N)C(=O)N[C@@H](CO[C@@H]1O[C@H](CO)[C@@H](O)[C@H](O)[C@H]1NC(C)=O)C(N)=O [Peptide 15, C16-RRS(GlcNAc)-NH2] (Palmitoyl-Arg-Arg-Ser(βGlcNAc)-NH2) | 18.80 | 8 (≈ 9.32 µM) | 16 (≈ 18.6 µM) | 64 (≈ 74.6 µM) | 16 (≈ 18.6 µM) |  |  |  |  |  |
| CCCCCCCCCCCCCCCCCC(=O)N[C@@H](CO[C@@H]1O[C@H](CO)[C@@H](O)[C@H](O)[C@H]1NC(C)=O)C(=O)N[C@@H](CCCNC(=N)N)C(=O)N[C@@H](CCCNC(=N)N)C(N)=O [Peptide 16, C18-S(GlcNAc)RR-NH2] (Stearoyl-Ser(βGlcNAc)-Arg-Arg-NH2) | 22.12 | 16 (≈ 18.1 µM) | 16 (≈ 18.1 µM) | 32 (≈ 36.1 µM) | 4 (≈ 4.51 µM) | 256 | 256 | 512 | 512 | 64 |
| CCCCCCCCCCCCCCCCCC(=O)N[C@@H](CCCNC(=N)N)C(=O)N[C@@H](CO[C@@H]1O[C@H](CO)[C@@H](O)[C@H](O)[C@H]1NC(C)=O)C(=O)N[C@@H](CCCNC(=N)N)C(N)=O [Peptide 17, C18-RS(GlcNAc)R-NH2] (Stearoyl-Arg-Ser(βGlcNAc)-Arg-NH2) | 22.50 | 8 (≈ 9.03 µM) | 16 (≈ 18.1 µM) | 32 (≈ 36.1 µM) | 4 (≈ 4.51 µM) | 128 | 256 | 512 | >512 | 64 |
| CCCCCCCCCCCCCCCCCC(=O)N[C@@H](CCCNC(=N)N)C(=O)N[C@@H](CCCNC(=N)N)C(=O)N[C@@H](CO[C@@H]1O[C@H](CO)[C@@H](O)[C@H](O)[C@H]1NC(C)=O)C(N)=O [Peptide 18, C18-RRS(GlcNAc)-NH2] (Stearoyl-Arg-Arg-Ser(βGlcNAc)-NH2) | 22.67 | 8 (≈ 9.03 µM) | 16 (≈ 18.1 µM) | 32 (≈ 36.1 µM) | 4 (≈ 4.51 µM) | 128 | 128 | 256 | 512 | 128 |
